Assay results reported in patent US6703418B2, “Appetite stimulation and induction of weight gain in patients suffering from symptomatic HIV infection” (Unimed Pharmaceuticals, Inc., priority 1991, dated 2004).

Columns and labels:
[1] = Example II: prospective dose-ranging study of dronabinol in patients with symptomatic HIV infection, weight change and side effects; format: in vivo, human
Method: In a prospective, dose-ranging study, 23 patients with symptomatic HIV infection were treated with dronabinol at a dose of 2.5 mg twice daily to 5.0 mg three times daily. Of these, 13 completed approximately one month on therapy.
At a dose which appears optimal, seven of eight patients completed one month treatment. […] Most of those patients who did experience side effects found them tolerable. […] The median rate of weight loss prior to therapy was 1.62 kg/mo; on therapy, the median weight gain was 1.56 kg/mo. The median improvement in the rate of weight change was 3.06 kg/mo, or approximately 1.5 lbs/wk.

[2] = Example I: ten symptomatic HIV patients treated with delta-9-tetrahydrocannabinol as dronabinol, weight change; format: in vivo, human
Method: Soft gelatin capsules were filled with delta-9-tetrahydrocannabinol in sesame oil (dronabinol). Capsules were filled with 2.5 mg delta-9-tetrahydrocannabinol per capsule or 5 mg delta-9-tetrahydrocannabinol per capsule.
Ten symptomatic HIV patients were treated with delta-9-tetrahydrocannabinol. […] The infectious complications which they had represent the spectrum of those usually seen in a symptomatic HIV-infected population.
Most of the patients had received or were on antiviral therapy, primarily zidovudine (azidothymidine). Two had previously received and one was receiving megesterol acetate as well. Patients received delta-9-tetrahydrocannabinol as dronabinol (delta-9-tetrahydrocannabinol in sesame oil in soft gelatin capsules), usually at a dose of 2.5 mg, for one to five months. Treatment continued for most of the patients at the time of this analysis. The dose varied. The patients were instructed to take medication up to four times daily as needed; many took it somewhat less often.
Initially, patients were losing a median of 0.93 kg/mo. On therapy, they gained 0.54 kg/mo. The median difference on versus pre-therapy was 1.92 kg/mo.

[3] = cancer patients, open study; cited from earlier work
[4] = oral; cancer chemotherapy patients; crossover; cited from earlier work
[5] = advanced cancer patients on chemotherapy, versus those not receiving it; cited from earlier work
[6] = children and adolescents 6-19 years of age; cited from earlier work
[7] = cancer chemotherapy patients; compared with prochlorperazine; cited from earlier work

Q: For `CCCCCc1cc(O)c2c(c1)OC(C)(C)[C@@H]1CCC(C)=C[C@@H]21` [delta-9-tetrahydrocannabinol], which “number of patients who gained weight” value ([1]; all doses, 2.5 mg twice daily to 5.0 mg three times daily, of 13 patients completing about one month on therapy) is on record?
A: seven gained weight

Q: What about the side effects ([1]; dose which appears optimal) of the same compound?
A: most patients did not experience side effects

Q: And the “median improvement in the rate of weight change” value ([1]; dose which appears optimal, converted from kg/mo)?
A: approximately 1.5 lbs/wk

Q: What about the “number of patients who gained weight” value ([1]; dose which appears optimal, of seven patients completing one month) of the same compound?
A: five of the seven patients gained weight

Q: And the “median improvement in the rate of weight change” value ([1]; dose which appears optimal, on therapy versus prior to therapy)?
A: 3.06 kg/mo

Q: What about the “median weight gain on therapy” value ([1]; dose which appears optimal, pre-therapy median loss 1.62 kg/mo) of the same compound?
A: 1.56 kg/mo

Q: And the “number of patients who gained weight” value ([2]; of ten symptomatic HIV patients)?
A: Seven patients gained weight

Q: And the “number of patients with a decrease in weight loss” value ([2]; of ten symptomatic HIV patients, besides those who gained weight)?
A: two others had a decrease in weight loss

Q: And the “median difference in rate of weight change, on versus pre-therapy” value ([2]; ten symptomatic HIV patients, usually 2.5 mg oral, one to five months)?
A: 1.92 kg/mo

Q: And the “median weight gain on therapy” value ([2]; ten symptomatic HIV patients, usually 2.5 mg oral, up to four times daily as needed, one to five months, pre-therapy median loss 0.93 kg/mo)?
A: 0.54 kg/mo

Q: And the appetite [3]?
A: appetite increases

Q: And the “rate of weight loss” value [3]?
A: lessening of the rate of weight loss

Q: What about the “subjects reporting an increased food intake” value [4] of the same compound?
A: 50%

Q: And the weight maintenance [5]?
A: maintained their weight better

Q: And the appetite stimulating effect [6]?
A: Results suggestive of an appetite stimulating effect

Q: And the reported hunger [7]?
A: reported feeling more hungry than patients on prochlorperazine
